Activity calls are given as the source filed them.
How the values were obtained:
[1] = molecular target: T1, Carboxy-terminal domain RNA polymerase II polypeptide A small phosphatase 1 (Homo sapiens, UniProt Q9GZU7); assay: inhibitors of CTDSP1, concentration-response testing, biochemical assay, absorbance-based, actives from ultra-high-throughput screening (AID 540297); type: functional
T1 sequence (Q9GZU7 whole entry): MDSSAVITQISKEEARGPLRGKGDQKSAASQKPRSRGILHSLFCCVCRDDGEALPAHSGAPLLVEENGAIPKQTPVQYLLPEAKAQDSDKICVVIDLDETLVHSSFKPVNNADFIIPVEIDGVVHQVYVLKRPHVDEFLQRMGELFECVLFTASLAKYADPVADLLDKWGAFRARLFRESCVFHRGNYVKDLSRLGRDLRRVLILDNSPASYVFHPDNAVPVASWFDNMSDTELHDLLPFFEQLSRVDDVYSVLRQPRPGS

[2] = growth suppression of PTEN-null colon cells, dose response, cell-based, HCT116 PTEN knockout (AID 1047); type: functional;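 further: HCT116 colon tumor cells with PTEN knocked out; cells exposed to compound for 60 hours before readout; potency for loss of cell viability measured by luminescence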
[3] = growth suppression of beta-catenin-knockout colon cells, dose response, cell-based, HCT116, human colon tumor (AID 1045); type: functional;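 further: HCT116 colon tumor cells with beta catenin knocked out; cells exposed to compound for 60 hours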
cells [4] = type: functional
[5] = molecular target: Voltage-dependent T-type calcium channel subunit alpha-1H (Homo sapiens, UniProt O95180); type: functional;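 further: channel activity triggered by adding a high calcium stimulation buffer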
Voltage-dependent T-type calcium channel subunit alpha-1H, sequence (O95180 whole entry): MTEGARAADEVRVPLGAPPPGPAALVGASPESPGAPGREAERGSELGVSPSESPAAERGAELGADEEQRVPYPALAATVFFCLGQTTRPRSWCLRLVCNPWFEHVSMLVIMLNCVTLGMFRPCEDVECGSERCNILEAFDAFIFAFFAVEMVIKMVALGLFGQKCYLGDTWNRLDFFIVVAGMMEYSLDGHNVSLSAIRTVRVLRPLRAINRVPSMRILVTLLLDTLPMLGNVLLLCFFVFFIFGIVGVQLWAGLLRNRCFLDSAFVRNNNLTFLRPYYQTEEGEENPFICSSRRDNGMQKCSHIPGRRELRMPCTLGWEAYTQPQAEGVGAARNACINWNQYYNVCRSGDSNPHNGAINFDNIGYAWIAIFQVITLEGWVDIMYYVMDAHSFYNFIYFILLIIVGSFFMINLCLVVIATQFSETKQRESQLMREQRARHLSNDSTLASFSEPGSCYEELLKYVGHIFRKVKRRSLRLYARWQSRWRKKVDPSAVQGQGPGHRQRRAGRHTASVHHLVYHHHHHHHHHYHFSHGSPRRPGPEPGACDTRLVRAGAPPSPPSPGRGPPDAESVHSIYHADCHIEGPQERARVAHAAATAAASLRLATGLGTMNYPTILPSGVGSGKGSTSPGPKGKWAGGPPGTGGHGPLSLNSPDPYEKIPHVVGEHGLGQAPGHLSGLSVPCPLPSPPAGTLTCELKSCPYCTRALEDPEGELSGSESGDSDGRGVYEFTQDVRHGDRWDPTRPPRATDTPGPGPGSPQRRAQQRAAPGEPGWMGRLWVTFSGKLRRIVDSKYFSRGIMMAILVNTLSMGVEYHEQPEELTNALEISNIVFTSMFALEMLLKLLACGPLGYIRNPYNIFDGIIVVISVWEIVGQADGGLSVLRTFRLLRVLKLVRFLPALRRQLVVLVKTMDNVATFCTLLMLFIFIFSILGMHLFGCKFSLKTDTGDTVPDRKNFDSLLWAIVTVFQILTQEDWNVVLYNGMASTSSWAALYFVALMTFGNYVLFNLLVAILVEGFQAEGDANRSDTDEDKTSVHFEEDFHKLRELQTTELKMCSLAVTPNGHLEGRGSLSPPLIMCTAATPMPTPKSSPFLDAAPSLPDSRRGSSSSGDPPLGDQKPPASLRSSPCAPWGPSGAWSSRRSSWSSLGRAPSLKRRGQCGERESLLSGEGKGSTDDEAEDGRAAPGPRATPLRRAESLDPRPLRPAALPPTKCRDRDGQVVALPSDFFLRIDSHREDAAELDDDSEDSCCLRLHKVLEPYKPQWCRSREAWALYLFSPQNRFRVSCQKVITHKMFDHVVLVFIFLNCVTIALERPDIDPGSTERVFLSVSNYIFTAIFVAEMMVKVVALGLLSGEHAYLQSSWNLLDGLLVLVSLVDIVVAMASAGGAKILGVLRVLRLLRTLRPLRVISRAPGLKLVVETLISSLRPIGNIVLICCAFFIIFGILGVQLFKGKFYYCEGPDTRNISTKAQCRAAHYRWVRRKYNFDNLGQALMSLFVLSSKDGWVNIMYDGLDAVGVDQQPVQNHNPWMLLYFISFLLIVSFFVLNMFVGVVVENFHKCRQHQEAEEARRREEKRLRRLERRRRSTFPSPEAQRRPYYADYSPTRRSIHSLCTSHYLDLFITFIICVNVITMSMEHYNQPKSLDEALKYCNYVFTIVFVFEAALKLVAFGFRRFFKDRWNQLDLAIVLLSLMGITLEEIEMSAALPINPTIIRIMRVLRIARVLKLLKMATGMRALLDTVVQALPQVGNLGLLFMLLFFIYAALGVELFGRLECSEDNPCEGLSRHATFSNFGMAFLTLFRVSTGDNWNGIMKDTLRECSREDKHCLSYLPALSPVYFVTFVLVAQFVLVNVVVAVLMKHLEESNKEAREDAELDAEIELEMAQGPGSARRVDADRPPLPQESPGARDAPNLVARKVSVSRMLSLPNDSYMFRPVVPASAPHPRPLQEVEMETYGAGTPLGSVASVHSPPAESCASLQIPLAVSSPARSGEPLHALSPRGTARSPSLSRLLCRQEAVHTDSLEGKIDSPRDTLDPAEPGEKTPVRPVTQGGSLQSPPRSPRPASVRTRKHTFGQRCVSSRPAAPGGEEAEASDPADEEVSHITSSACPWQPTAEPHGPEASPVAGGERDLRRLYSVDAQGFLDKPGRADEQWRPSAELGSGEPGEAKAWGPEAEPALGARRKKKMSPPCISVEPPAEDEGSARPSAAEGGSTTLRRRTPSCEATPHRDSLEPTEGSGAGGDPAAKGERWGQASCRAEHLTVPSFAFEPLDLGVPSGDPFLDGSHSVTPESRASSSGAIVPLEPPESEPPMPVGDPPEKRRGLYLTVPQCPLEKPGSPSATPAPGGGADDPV

cells [6] = type: functional, cell-based
cells [7] = type: functional, cell-based; remark: listed apart in the source
Cytochrome P450 2C19 = Cytochrome P450 2C19 (Homo sapiens, UniProt P33261); assay: Cytochrome panel assay with activity outcomes. Panel member name: p450-cyp2c19 Compounds with AC50 equal or less than 10 uM are considered active; type: functional; settings: read-out: AC50
Cytochrome P450 2C19, sequence (P33261 whole entry): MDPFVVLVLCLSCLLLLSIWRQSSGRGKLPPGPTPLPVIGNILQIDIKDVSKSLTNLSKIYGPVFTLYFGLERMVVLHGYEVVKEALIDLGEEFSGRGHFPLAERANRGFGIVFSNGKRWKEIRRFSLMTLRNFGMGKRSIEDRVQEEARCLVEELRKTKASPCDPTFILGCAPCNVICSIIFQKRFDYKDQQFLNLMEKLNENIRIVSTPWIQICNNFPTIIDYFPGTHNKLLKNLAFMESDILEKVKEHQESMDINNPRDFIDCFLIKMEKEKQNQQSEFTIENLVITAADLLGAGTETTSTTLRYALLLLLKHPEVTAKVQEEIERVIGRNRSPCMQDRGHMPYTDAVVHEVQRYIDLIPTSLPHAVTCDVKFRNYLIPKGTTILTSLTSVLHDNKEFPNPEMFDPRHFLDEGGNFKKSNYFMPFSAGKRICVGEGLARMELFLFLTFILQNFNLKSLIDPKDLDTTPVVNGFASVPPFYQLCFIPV

Cytochrome P450 3A4 = Cytochrome P450 3A4 (Homo sapiens, UniProt P08684);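 further: CYP3A4 tested as one member of a cytochrome P450 panel screen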
Cytochrome P450 3A4, sequence (P08684 whole entry): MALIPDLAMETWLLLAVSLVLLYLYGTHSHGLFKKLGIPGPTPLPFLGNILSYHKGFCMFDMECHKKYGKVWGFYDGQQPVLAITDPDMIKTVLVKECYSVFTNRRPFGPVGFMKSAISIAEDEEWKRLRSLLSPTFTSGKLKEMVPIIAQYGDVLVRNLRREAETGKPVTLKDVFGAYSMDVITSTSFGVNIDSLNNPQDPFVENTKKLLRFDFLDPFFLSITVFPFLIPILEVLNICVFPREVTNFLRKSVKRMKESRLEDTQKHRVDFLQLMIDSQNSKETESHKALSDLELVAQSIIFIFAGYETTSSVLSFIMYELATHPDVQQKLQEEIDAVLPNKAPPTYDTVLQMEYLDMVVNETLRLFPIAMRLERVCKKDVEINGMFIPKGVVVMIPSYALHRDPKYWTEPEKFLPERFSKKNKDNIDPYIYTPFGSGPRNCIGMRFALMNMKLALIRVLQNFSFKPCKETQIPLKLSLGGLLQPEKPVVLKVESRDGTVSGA

[8] = HEp-2 cell cytotoxicity, dose response, cytotoxicity control for RSV inhibitor project, HTS (AID 2410); type: functional; settings: human respiratory syncytial virus
[9] = Luminescence Cell-Based Dose Retest to Confirm Inhibitors of Cancer Stem Cells. [Related pubchem assays (depositor defined):AID2717, AID2721]; type: functional; settings: Homo sapiens
[10] = molecular target: T2, Calpain-2 catalytic subunit (Sus scrofa, UniProt P43367); assay: pig calpain II inhibitor potency, dose response, biochemical, fluorogenic peptide substrate (AID 1420); type: functional
T2 sequence (P43367 whole entry): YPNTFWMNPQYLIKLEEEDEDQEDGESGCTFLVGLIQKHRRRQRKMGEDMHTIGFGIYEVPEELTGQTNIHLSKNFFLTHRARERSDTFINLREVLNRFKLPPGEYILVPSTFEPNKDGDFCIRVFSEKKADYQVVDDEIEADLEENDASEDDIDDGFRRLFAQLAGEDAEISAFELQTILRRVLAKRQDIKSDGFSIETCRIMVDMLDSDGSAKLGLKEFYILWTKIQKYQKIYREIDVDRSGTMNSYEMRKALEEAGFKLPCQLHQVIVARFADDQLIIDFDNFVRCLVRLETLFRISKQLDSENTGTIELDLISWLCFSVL

[11] = inhibitors of firefly luciferase expression or activity, dose response, H4 neuroglioma cells, luminescence (AID 1990); type: functional, cell-based
[12] = Luminescence Cell-Based Dose Response HTS to Identify Inhibitors of 5'UTR Stem-Loop Driven Prion Protein mRNA Translation in H4 Neuroglioblastoma Cells. [Related pubchem assays: 1827 (Project Summary), 1813 (Primary HTS)]; type: functional
[13] = inhibitors of SNCA 5'UTR-driven reporter translation, confirmation, H4 neuroglioma cells, luminescence (AID 1988); type: functional, cell-based
[14] = Shn3 3'UTR reporter inhibitors, dose response, cell-based, Clone20 osteoblasts, firefly luciferase, cherry-picked (AID 624132); type: functional;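 further: firefly luciferase luminescence from reporter carrying the Shn3 3'UTR in osteoblasts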
[15] = control 3'UTR Renilla luciferase suppression, dose response, counter-screen for Shn3 inhibitor project, cell-based, Clone20-Shn3RL, cherry-picked (AID 624133); type: functional
[16] = molecular target: T3, Heat shock factor protein 1 (Mus musculus, UniProt P38532); assay: inhibition of MG132-induced HSE-luciferase signal, confirmation, cell-based, NIH3T3, luminescence, dose retest (AID 2382); type: functional;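 further: NIH3T3 fibroblasts with HSF1-driven luciferase reporter stressed by proteasome inhibitor MG132; luminescence from HSF1-driven luciferase expression after 8 hours of MG132 stress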
T3 sequence (P38532 whole entry): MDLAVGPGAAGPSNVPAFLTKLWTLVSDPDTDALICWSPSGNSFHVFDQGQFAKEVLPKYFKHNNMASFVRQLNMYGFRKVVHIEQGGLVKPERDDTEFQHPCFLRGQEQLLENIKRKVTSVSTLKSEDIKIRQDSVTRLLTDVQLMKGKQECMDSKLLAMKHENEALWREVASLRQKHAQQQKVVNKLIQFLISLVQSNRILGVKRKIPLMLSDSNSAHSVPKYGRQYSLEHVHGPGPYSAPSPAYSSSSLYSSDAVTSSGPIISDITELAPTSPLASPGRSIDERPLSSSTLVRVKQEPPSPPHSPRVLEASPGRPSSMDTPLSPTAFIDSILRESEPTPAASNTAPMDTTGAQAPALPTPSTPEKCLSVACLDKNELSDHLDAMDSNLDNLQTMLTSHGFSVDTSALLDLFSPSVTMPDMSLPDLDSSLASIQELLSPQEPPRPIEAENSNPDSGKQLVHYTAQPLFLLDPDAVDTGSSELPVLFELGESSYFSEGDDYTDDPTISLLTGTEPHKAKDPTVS

[17] = molecular target: T4, Polyadenylate-binding protein 1 (Homo sapiens, UniProt P11940); assay: PABP1 MLLE–PAM2 interaction inhibitors, dose response, miRNA deadenylation inhibitor project, biochemical, fluorescence polarization, Cy5-PAM2 peptide, secondary (AID 602260); type: functional; settings: read-out: IC50_Mean
T4 sequence (P11940 whole entry): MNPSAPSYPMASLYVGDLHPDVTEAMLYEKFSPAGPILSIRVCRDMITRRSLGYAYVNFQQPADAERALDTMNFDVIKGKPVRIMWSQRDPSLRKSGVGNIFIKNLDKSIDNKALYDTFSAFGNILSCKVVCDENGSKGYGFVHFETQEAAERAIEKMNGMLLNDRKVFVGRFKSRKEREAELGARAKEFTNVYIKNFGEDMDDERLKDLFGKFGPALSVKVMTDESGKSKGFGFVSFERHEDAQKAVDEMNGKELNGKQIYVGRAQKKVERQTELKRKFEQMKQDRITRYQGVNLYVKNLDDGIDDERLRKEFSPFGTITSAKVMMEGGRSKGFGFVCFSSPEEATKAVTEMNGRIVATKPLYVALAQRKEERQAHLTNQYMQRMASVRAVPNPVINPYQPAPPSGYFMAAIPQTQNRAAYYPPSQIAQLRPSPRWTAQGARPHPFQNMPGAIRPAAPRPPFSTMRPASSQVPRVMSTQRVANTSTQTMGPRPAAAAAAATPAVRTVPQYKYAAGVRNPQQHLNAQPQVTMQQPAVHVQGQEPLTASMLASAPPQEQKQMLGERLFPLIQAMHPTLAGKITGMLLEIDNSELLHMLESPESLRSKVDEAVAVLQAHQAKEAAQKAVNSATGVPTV

[18] = molecular target: T4, Polyadenylate-binding protein 1; assay: PABP1 MLLE–PAM2 binding inhibitor potency, dose response, biochemical, fluorescence polarization, FITC-PAM2 peptide (AID 602259); type: functional; settings: read-out: IC50_Mean
[19] = test system: Streptococcus sp. 'group A'; assay: growth inhibition of control SK(-) GAS strain, dose response, counter-screen for streptokinase expression inhibitor project, luminescence, kanamycin, BacTiterGlo, confirmation (AID 1900); type: functional, organism-based
Streptococcus = assay: Group A Streptococcus viability loss, dose response, counter-screen for streptokinase expression inhibitor project, luminescence, BacTiterGlo (AID 1915); type: functional, organism-based;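 further: potency for reduction of bacterial viability or growth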

Structure (SMILES): O=C(CSc1ncccc1-c1nc2ccccc2[nH]1)NCc1ccco1
- IC50 [1]: 10.3 µM (active)

Structure (SMILES): CCOc1ccc2nc(Cl)c(C3CC(c4ccccc4)=NN3C(=O)c3cccs3)cc2c1 (configuration not stated)
- EC50 [2]: 4.07 µM (active)
- EC50 [3]: 3.9 µM (active)

Structure (SMILES): O=C(Cc1ccc(Cl)cc1)OCC(=O)c1ccc[nH]1
- IC50 (cells [4]): 18.8 µM (active)

Structure (SMILES): CCC(=O)n1nc(NCc2ccccc2OC)nc1NCc1ccccc1OC
- EC50 [5]: 1.68 µM (active)

Structure (SMILES): CCOC(=O)C(NC(C)=O)(N1CCOCC1)C(F)(F)F (configuration not stated)
- EC50 (cells [6]): > 350 µM (not active)
- EC50 (cells [7]): > 350 µM (not active)

Structure (SMILES): O=c1c2ccccc2nc2sc(Nc3ccc(F)cc3)nn12
- IC50 [1]: 8.04 µM (active)

Structure (SMILES): COc1ccc(CC(=O)Nc2ccc(-c3noc(-c4cccc(OC)c4)n3)cc2)cc1
- EC50 [2]: 14.9 µM (active)
- EC50 [3]: 11.8 µM (active)
- AC50 (Cytochrome P450 2C19): 4.47 µM (inconclusive)
- AC50 (Cytochrome P450 3A4): 1 µM (inconclusive)

Structure (SMILES): COCc1ccc(C(=O)N2CCCC(CCC(=O)NCc3ccccc3F)C2)o1 (configuration not stated)
- EC50 (cells [6]): > 350 µM (not active)
- EC50 (cells [7]): > 350 µM (not active)

Structure (SMILES): COC(=O)c1c(NC(=O)c2ccc(S(=O)(=O)N3CCOCC3)cc2)sc2c1CCN(C)C2
- EC50 [2]: 23.8 µM (active)
- EC50 [3]: 14.9 µM (active)

Structure (SMILES): CCNc1nc(NCC)n2c(SC(C(=O)Nc3cc(Cl)cc(Cl)c3)c3ccccc3)nnc2n1 (configuration not stated)
- CC50 [8]: 6.19 µM (active)
- EC50 [2]: 5.99 µM (active)
- EC50 [3]: 6.35 µM (active)
- AC50 [9]: 1.59 µM (active)

Structure (SMILES): O=C1c2ccccc2C(=O)N1CCCCSc1nnnn1-c1ccccc1
- IC50 [10]: 9.41 µM (not active)

Structure (SMILES): c1ccc(-c2ccccc2-c2nc(-c3cccnc3)no2)cc1
- EC50 [5]: 8.07 µM (active)

Structure (SMILES): COc1ccccc1/C=C/C=N/NC(=O)c1ccncc1
- IC50 (cells [4]): 0.44 µM (active)

Structure (SMILES): CCOC(=O)c1cc(COc2cc(Cl)cc(Cl)c2)on1
- IC50 (cells [4]): 1.97 µM (active)

Structure (SMILES): COc1ccc(-c2cc(C(=O)NC(Cc3cc4ccccc4[nH]3)C(=O)O)c(C)o2)cc1OC (configuration not stated)
- IC50 [10]: 4.12 µM (not active)

Structure (SMILES): CCCCOc1ccc(C(=O)NCC(=O)OC2CCOC2=O)cc1 (configuration not stated)
- EC50 (cells [6]): > 350 µM (not active)
- EC50 (cells [7]): > 350 µM (not active)

Structure (SMILES): CCO/C(O)=C1\C(C)=NC2=C(C1c1ccc([N+](=O)[O-])cc1)S(=O)(=O)c1ccccc12 (configuration not stated)
- EC50 [11]: 17.2 µM (active)
- EC50 [12]: 17.8 µM (active)
- EC50 [13]: 23.9 µM (active)
- EC50 [2]: 29 µM (active)
- EC50 [3]: 31.4 µM (active)

Structure (SMILES): CC(C)Sc1oc(-c2ccco2)nc1S(=O)(=O)c1ccc(F)cc1
- EC50 [5]: 7.9 µM (active)

Structure (SMILES): O=C(N/N=C1/CCCc2ccccc21)c1cc([N+](=O)[O-])cc([N+](=O)[O-])c1
- IC50 [10]: 21.8 µM (not active)

Structure (SMILES): CC(C)=CC(=O)OCC(=O)NC(=O)NC(C)(C)C
- IC50 [10]: > 50 µM (not active)

Structure (SMILES): C#CCN1C(=O)C(O)(CC(=O)c2cccc(OC)c2)c2ccccc21 (configuration not stated)
- EC50 [2]: 19.2 µM (active)
- EC50 [3]: 19.3 µM (active)

Structure (SMILES): O=C(Nc1ccccc1F)c1cc(-c2ccco2)nc2ccccc12
- IC50 [1]: 8.25 µM (active)

Structure (SMILES): O=C1CC(c2ccccc2)CC(=O)C1=CNc1cccc(Cl)c1 (configuration not stated)
- AC50 [14]: 4.94 µM (active)
- AC50 [15]: 19.8 µM (active)

Structure (SMILES): O=S(=O)(c1ccc2c(c1)CCCN2)N1CCCC2CCCCC21 (configuration not stated)
- IC50 [10]: 12.4 µM (not active)

Structure (SMILES): O=C(/C=C/c1cccc(OCc2ccccc2)c1)c1cccnc1
- EC50 [2]: 5.59 µM (active)
- EC50 [3]: 3.79 µM (active)

Structure (SMILES): COc1cccc(C2=CC(c3cccs3)n3nnnc3N2)c1 (configuration not stated)
- IC50 [10]: 1.42 µM (not active)

Structure (SMILES): S=C(c1ccc(N2CCOCC2)cc1)N1CCOCC1
- EC50 [16]: > 195 µM (not active)
- IC50 [17]: > 66 µM (inactive)
- IC50 [18]: > 66 µM (inactive)

Structure (SMILES): Cc1c(Cl)cccc1NC(=S)N/N=C/c1ccccc1Cl
- EC50 (cells [6]): > 350 µM (not active)
- EC50 (cells [7]): > 350 µM (not active)

Structure (SMILES): COc1ccc(OC)c2sc(N3CCN(C(=O)c4ccc5ncsc5c4)CC3)nc12
- EC50 (cells [6]): > 350 µM (not active)
- EC50 (cells [7]): > 350 µM (not active)

Structure (SMILES): O=C1C=C(O)c2cccc(O)c2C1=O
- IC50 [1]: 44.5 µM (active)

Structure (SMILES): CCCn1c(=O)c(C(=O)N/N=C/c2ccccc2F)c(O)c2ccccc21
- IC50 (cells [4]): 48.2 µM (active)

Structure (SMILES): CCCOC(=O)c1ccc(NC(=O)c2ccccc2OC)cc1
- IC50 (cells [4]): 11.3 µM (active)

Structure (SMILES): Cc1cc(NC(=O)CSc2sc3c(O)cc(=O)[nH]c3c2C#N)ccc1Br
- IC50 [1]: 3.74 µM (active)

Structure (SMILES): O=C(CCCCCNC(=O)c1ccccc1)N/N=C/c1ccco1
- IC50 [1]: 29.2 µM (active)

Structure (SMILES): COc1ccccc1-n1c([S-])c(C(=O)Nc2ccccc2C(F)(F)F)[n+]2ccc(C(=O)NCCO)cc12
- IC50 [10]: 6.82 µM (not active)

Structure (SMILES): O=C1N=C(Nc2ccccn2)SC1Cc1ccc(Cl)cc1 (configuration not stated)
- EC50 [19]: 83.8 µM (active)
- EC50 (Streptococcus): > 150 µM (not active)
- IC50 (cells [4]): > 25 µM (active)

Structure (SMILES): Cc1cccc(OCCCSc2nc3ccccc3[nH]2)c1
- EC50 [5]: 3.47 µM (active)

Structure (SMILES): CCCC(=O)Nc1cccc(-c2nc3ccccc3c(=O)o2)c1
- IC50 (cells [4]): 10.4 µM (active)

Structure (SMILES): CC(=O)Nc1ccc(S(=O)(=O)N2CCc3c(Cl)cccc3C2)cc1
- EC50 [5]: 4.82 µM (active)

Structure (SMILES): CN(CCS(=O)(=O)c1ccc(Cl)cc1)Cc1cccnc1
- EC50 (cells [6]): > 350 µM (not active)
- EC50 (cells [7]): > 350 µM (not active)

Structure (SMILES): O=C(CSc1nc2ccccc2[nH]1)NC1CCCC1
- IC50 [1]: 6.85 µM (active)

Structure (SMILES): CC(C)(C)CC(C)(C)c1ccc(OCC(=O)N/N=C/c2ccc(S(=O)(=O)O)o2)cc1
- IC50 [10]: > 50 µM (not active)

Source: ChEMBL document CHEMBL1201862, “PubChem BioAssay data set” (2004)
